Test results taken from PMC12747936, “Rhamnose alleviates the proinflammatory response during endotoxemia via the CEACAM1/LGALS9-p38 axis” (Acta Biochimica et Biophysica Sinica, 2025).

Columns and labels:
CEACAM1 (BMDMs) = biological target: T1, CEACAM1 (BMDMs) (Mus musculus, UniProt P31809); experiment: CETSA and DARTS, western blot; assay type: biochemical; details: BMDM lysate; CETSA 100 μM rhamnose, 2 h, 37-67°C; DARTS with pronase 1:1000, TNC buffer pH 8.0
T1 construct: endogenous protein in lysate of murine bone marrow-derived macrophages; band 150-250 kDa region discussed
T1 sequence (P31809 35-521): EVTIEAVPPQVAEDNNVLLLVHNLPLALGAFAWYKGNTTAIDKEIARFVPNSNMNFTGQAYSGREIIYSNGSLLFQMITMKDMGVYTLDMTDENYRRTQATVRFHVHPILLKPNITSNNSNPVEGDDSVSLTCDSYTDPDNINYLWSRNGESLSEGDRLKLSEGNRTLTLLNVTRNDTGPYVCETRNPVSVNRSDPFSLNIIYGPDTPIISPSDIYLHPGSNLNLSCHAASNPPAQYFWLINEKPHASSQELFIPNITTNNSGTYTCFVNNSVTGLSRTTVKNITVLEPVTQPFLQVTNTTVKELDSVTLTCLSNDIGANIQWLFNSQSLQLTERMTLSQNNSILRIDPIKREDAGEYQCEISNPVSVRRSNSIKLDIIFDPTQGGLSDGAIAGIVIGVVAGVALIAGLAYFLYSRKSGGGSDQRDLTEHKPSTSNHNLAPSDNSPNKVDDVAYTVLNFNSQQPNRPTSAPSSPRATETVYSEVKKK

CEACAM1 (THP-1-dMs) = biological target: T2, CEACAM1 (THP-1-dMs) (Homo sapiens, UniProt P13688); experiment: CETSA and DARTS, western blot; assay type: biochemical; details: THP-1-dM lysate; CETSA 100 μM rhamnose, 2 h, 37-67°C; DARTS with pronase 1:1000, TNC buffer pH 8.0
T2 construct: endogenous protein in lysate of PMA-differentiated THP-1 macrophages
T2 sequence (P13688 35-526): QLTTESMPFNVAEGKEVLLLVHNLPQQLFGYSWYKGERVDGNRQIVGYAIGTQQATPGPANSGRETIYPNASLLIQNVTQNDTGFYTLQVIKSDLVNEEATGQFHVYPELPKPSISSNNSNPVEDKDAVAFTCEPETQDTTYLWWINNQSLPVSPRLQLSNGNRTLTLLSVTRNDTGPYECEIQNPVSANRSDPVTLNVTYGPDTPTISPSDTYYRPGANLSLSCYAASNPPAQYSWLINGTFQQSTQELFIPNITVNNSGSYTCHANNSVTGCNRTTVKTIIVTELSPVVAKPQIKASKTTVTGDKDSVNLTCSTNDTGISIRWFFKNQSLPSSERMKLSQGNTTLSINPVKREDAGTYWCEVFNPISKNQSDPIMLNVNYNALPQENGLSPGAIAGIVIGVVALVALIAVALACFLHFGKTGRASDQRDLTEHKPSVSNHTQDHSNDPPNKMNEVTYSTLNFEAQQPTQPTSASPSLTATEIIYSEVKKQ

SMILES: C[C@@H]1OC(O)[C@H](O)[C@H](O)[C@H]1O (some centres unmarked) [rhamnose]
- CETSA and DARTS, western blot (CEACAM1 (BMDMs)): CETSA also demonstrated that rhamnose reduced the degradation rate of CEACAM1 in heat-denatured BMDMs
- CETSA and DARTS, western blot (CEACAM1 (THP-1-dMs)): rhamnose treatment increased the resistance of the CEACAM1 protein to protease hydrolysis
